Experimental data from US20190345121A1, “PYRENE-BASED COMPOUNDS FOR INTRACELLULAR ORGANELLE IMAGING APPLICATIONS” (priority 2018, published 2019).

How the values were obtained:
[1] = in the presence of DNA in Tris buffer; cited from earlier work
DNA = assay: Fluorescence titration with DNA in PBS buffer; type: binding; conditions: PBS buffer pH=7.4, DNA <25 μg mL^−1
Text: The pyrene segment of the pyrene-based compounds having a pyridinium group of the present invention is thought to play an important role in the interaction of probes made with the pyrene-based compounds having a pyridinium group of the present invention with DNA, as planar aromatic compounds are usually regarded as DNA intercalators. In order to shed some light on the interaction between probes made from the pyrene-based compounds having a pyridinium group of the present invention and DNA, fluorescence spectra were acquired when DNA was added into probes made from the pyrene-based compounds having a pyridinium group of the present invention in a PBS buffer solution (pH=7.4). […] Therefore, the initial fluorescence quenching was attributed to the interaction between probes made from the pyrene-based compounds having a pyridinium group of the present invention and DNA, possibly involving insertion of dye molecules into DNA groves.

A549 cells = assay: Long-term imaging ability; type: cell-based, human
Protocol: For the long-term imaging ability assessment aspect of the experiment, a Zeiss LSM 710 fluorescence confocal microscope with identical settings were used for photostability comparisons of the probes (561 nm (15 mW) laser line; Laser power percentage 1.0; Digital zoom=1; Pinhole=1A U; Master Gain=500; Digital offset=0). Different imaging plates with A549 cells were incubated for 30 minutes at […] with probes made using solutions of the pyrene-based compounds having a benzothiazolium group of the present invention as well as with probes made from LysoTracker® Red DND-99. Fluorescence confocal microscopy images were obtained at 30-minute intervals (identical fluorescence microscopy settings were used during the experiments). ImageJ (NIH) software was used to analyze the obtained images and average relative fluorescence intensity was plotted as a function of time.
The lack of cellular pH perturbation, in addition to its low toxicity, raised the possibility of using the pyrene-based compounds having a benzothiazolium group of the present invention for long term lysosome imaging. Thus, A549 cells were treated with a pyrene-based compound having a benzothiazolium group of the present invention (500 nM) over a period of 6 hours, which gave stable fluorescent confocal microscopy images as shown in FIG. 4A. […]

| Structure (SMILES) | fluorescence quantum yield ϕfl [1] | fluorescence change on initial addition of DNA (DNA) | cell morphology during long-term imaging (A549 cells; after 1.5 hours) | average fluorescence intensity vs. staining time (A549 cells; images every 30 minutes) |
| --- | --- | --- | --- | --- |
| CN(C)CCNc1ccc(O)c2c1C(=O)c1c(O)ccc(NCCN(C)C)c1C2=O [DRAQ5] | about 0.003 | partial fluorescence quenching |  |  |
| CN(C)CCNC(=O)CCc1ccc2n1[B-](F)(F)[N+]1=C(c3ccc[nH]3)C=CC1=C2 [LysoTracker® Red DND-99] |  |  | significant morphological changes and notable cell shrinkage | significant decrease in relative intensity |
